# In patent US20100311586A1, “HERBICIDAL COMBINATION” (Bayer CorpScience AG, priority 2007, published 2010):
# “And” between values parts separate entries of the source, which are not always exact repeats. Equal entries are not always repeated.
# Tested on: Polygonum convolvulus
# Assay: Post-emergence action against weeds, greenhouse pot test, visual scoring
# Type: in vivo
# Details: 11 days after application, 0%=no control, 100%=complete control
# Experimental: Seeds or rhizome pieces of monocotyledonous and dicotyledonous weeds were placed in sandy loam soil in plastic pots, covered with soil and cultivated in a greenhouse under good growth conditions. Three weeks after sowing, the test plants were treated at the 2- to 4-leaf stage. The compounds according to the invention, formulated as wettable powders or as emulsion concentrates, were sprayed onto the green parts of the plants in various dosages at a water application rate of 100 to 800 I/ha (converted). After the test plants had been left to stand in the greenhouse for 10 to 28 days under optimum growth conditions, the effect of the preparations was scored visually in comparison to untreated controls.
# 0%=no control 100%=complete control
compound,measurement,setting,value
"Nc1c([N+](=O)[O-])ccc(Oc2ccccc2)c1Cl [Compound B1-2, aclonifen]",Polygonum convolvulus Control in %,100 g of ai/ha,20%
"Cc1cc(Cl)ccc1O[C@H](C)C(=O)O [Compound B4-5, mecoprop-P]",Polygonum convolvulus Control in %,200 g of ai/ha,50%
"O=C(O)COc1ccc(Cl)cc1Cl [Compound B5-2, 2,4-D]",Polygonum convolvulus Control in %,200 g of ai/ha,55%
"Cc1cc(Cl)ccc1OCC(=O)O [Compound B5-3, MCPA]",Polygonum convolvulus Control in %,200 g of ai/ha,50%
"C#CCOC(=O)[C@@H](C)Oc1ccc(Oc2ncc(Cl)cc2F)cc1 [Compound B7-1, clodinafop-propargyl]",Polygonum convolvulus Control in %,20 g of ai/ha,5%
"COC(=O)C(C)Oc1ccc(Oc2ccc(Cl)cc2Cl)cc1 (centres unmarked) [Compound B7-3, diclofop-methyl]",Polygonum convolvulus Control in %,1000 g of ai/ha,15%
"CCOC(=O)[C@@H](C)Oc1ccc(Oc2nc3ccc(Cl)cc3o2)cc1 [Compound B7-5, fenoxaprop-P-ethyl]",Polygonum convolvulus Control in %,45 g of ai/ha,35%
"sodium salt of 2-iodo-N-[(4-methoxy-6-methyl-1,3,5-triazin-2-yl)carbamoyl]benzenesulfonamide [Compound A-2]",Polygonum convolvulus Control in %,2.5 g of ai/ha,10% and 20%
